{
  "source": "patent US8546608B2",
  "about": "“Proteasome inhibitors and methods of using the same” (Cephalon, Inc., priority 2003, dated 2013)",
  "key": {"[1]": {"biological_target": "T1, 20S Human Erythrocyte Proteasome (HEP) (Homo sapiens, UniProt P20618+P28074)", "T1 construct": "20S Human Erythrocyte Proteasome (HEP), purchased from Immatics Biotechnologies Inc; purchased Immatics Biotechnologies Inc., Tübingen, Germany; host or cells: human erythrocytes (natural source)", "assay": "Chymotrypsin-like activity of 20S Human Erythrocyte Proteasome (HEP), IC50 determination", "format": "biochemical", "conditions": "assay of Example C, inhibition of HEP", "how_it_was_run": "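20S proteasome at 0.2 μg/mL (about 0.6 nM catalytic sites) in 20 mM Tris with 0.04% SDS, preincubated 15 min at 37° C with inhibitor before Suc-LLVY-AMC (100 μM final). AMC fluorescence read in the linear range; triplicates, IC50 from concentration series.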"}, "[2]": {"biological_target": "T2, proteasome in Molt-4 cells (human leukemia) (Homo sapiens, UniProt P20618+P28074)", "T2 sequence (P28074 60-263)": "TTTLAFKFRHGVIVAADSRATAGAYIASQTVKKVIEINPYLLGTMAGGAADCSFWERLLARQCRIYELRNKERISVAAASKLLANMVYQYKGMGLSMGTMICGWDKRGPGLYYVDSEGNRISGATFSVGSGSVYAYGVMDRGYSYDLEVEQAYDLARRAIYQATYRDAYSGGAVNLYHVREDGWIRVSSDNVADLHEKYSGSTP", "T2 sequence (P20618 29-241)": "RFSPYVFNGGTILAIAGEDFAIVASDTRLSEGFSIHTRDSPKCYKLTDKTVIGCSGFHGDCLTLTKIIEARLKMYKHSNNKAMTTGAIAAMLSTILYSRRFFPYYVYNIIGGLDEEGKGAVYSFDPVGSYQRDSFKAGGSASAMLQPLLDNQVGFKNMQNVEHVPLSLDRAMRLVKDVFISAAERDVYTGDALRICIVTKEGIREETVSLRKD", "format": "cell-based", "how_it_was_run": "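Intact Molt-4 cells (6×10^6 cells/mL) in HEPES-buffered saline were preincubated with inhibitor 15 min at 37 °C, then given cell-permeable MeOSuc-FLF-AFC at 25 μM final.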"}, "[3]": {"conditions": "assay of Example E, inhibition of MOLT4; read-out: MOLT4 (EC50)"}},
  "note": "Like-named read-outs stand apart in the source and are kept apart here.",
  "data": [
    {"smiles": "CCCCc1ccc(C(=O)N[C@@H](CNC(=O)c2cccn2C)C(=O)N[C@@H](CC(C)C)B(O)O)cc1", "note": "[E.5.16, Boronic acid, [(1R)-1-[[(2S)-3-[1-N-methyl-2-pyrrolylcarbonylamino]-2-[(4-butylbenzoyl)amino]-1-oxopropyl]amino]-3-methylbutyl]]", "values": [
      {"measurement": "IC50", "setting": "[1]", "result": "< 10", "unit": "nM"},
      {"measurement": "EC50", "setting": "[2]; [3]", "result": "< 200", "unit": "nM"},
      {"measurement": "melting point", "result": "130 to 135", "unit": "°C"}
    ]},
    {"smiles": "CCCCc1ccc(C(=O)N[C@@H](CNC(=O)c2ccc(S(N)(=O)=O)cc2)C(=O)N[C@@H](CC(C)C)B(O)O)cc1", "note": "[E.5.17, Boronic acid, [(1R)-1-[[(2S)-3-[4-sulfamylbenzoylamino]-2-[(4-butylbenzoyl)amino]-1-oxopropyl]amino]-3-methylbutyl]]", "values": [
      {"measurement": "IC50", "setting": "[1]", "result": "< 10", "unit": "nM"},
      {"measurement": "EC50", "setting": "[2]; [3]", "result": "200 to 2000", "unit": "nM"},
      {"measurement": "melting point", "result": "156 to 159", "unit": "°C"}
    ]},
    {"smiles": "CCCCc1ccc(C(=O)N[C@@H](CNC(=O)c2ccc(S(C)(=O)=O)cc2)C(=O)N[C@@H](CC(C)C)B(O)O)cc1", "note": "[E.5.20, Boronic acid, [(1R)-1-[[(2S)-3-[(4-methylsulfonyl)benzoylamino]-2-[(4-butylbenzoylamino)]-1-oxopropyl]amino]-3-methylbutyl]]", "values": [
      {"measurement": "IC50", "setting": "[1]", "result": "< 10", "unit": "nM"},
      {"measurement": "EC50", "setting": "[2]; [3]", "result": "< 200", "unit": "nM"},
      {"measurement": "melting point", "result": "168 to 170", "unit": "°C"}
    ]},
    {"smiles": "CCCCCCCCCC(=O)N[C@@H](CNC(=O)c1cccnc1)C(=O)N[C@@H](CC(C)C)B(O)O", "note": "[E.5.22, Boronic acid, [(1R)-1-[[(2S)-3-(nicotinoylamino)-2-(decanoylamino)-1-oxopropyl]amino]-3-methylbutyl]]", "values": [
      {"measurement": "IC50", "setting": "[1]", "result": "< 10", "unit": "nM"},
      {"measurement": "EC50", "setting": "[2]; [3]", "result": "< 200", "unit": "nM"},
      {"measurement": "melting point", "result": "136 to 141", "unit": "°C"}
    ]},
    {"smiles": "CCCCc1ccc(C(=O)N[C@@H](CNC(=O)c2ccc(-c3nn[nH]n3)cc2)C(=O)N[C@@H](CC(C)C)B(O)O)cc1", "note": "[E.5.24, Boronic acid, [(1R)-1-[[(2S)-3-[4-(1H-tetrazolyl)-phenylcarbonylamino]-2-[(4-butylbenzoylamino)]-1-oxopropyl]amino]-3-methylbutyl]]", "values": [
      {"measurement": "IC50", "setting": "[1]", "result": "< 10", "unit": "nM"},
      {"measurement": "EC50", "setting": "[2]; [3]", "result": "200 to 2000", "unit": "nM"},
      {"measurement": "melting point", "result": "> 250", "unit": "°C"}
    ]},
    {"smiles": "CCCCc1ccc(C(=O)N[C@@H](CNC(=O)c2ccno2)C(=O)N[C@@H](CC(C)C)B(O)O)cc1", "note": "[E.5.25, Boronic acid, [(1R)-1-[[(2S)-3-(2-isoxazolylcarbonylamino)-2-[(4-butylbenzoylamino)]-1-oxopropyl]amino]-3-methylbutyl]]", "values": [
      {"measurement": "IC50", "setting": "[1]", "result": "< 10", "unit": "nM"},
      {"measurement": "EC50", "setting": "[2]; [3]", "result": "< 200", "unit": "nM"},
      {"measurement": "melting point", "result": "175 to 180", "unit": "°C"}
    ]},
    {"smiles": "CCCCc1ccc(C(=O)N[C@@H](CNS(=O)(=O)c2cn(C)cn2)C(=O)N[C@@H](CC(C)C)B(O)O)cc1", "note": "[E.5.26, Boronic acid, [(1R)-1-[[(2S)-3-[1-methyl-1H-imidazole-4-sulfamoyl]-2-[(4-butylbenzoyl)amino]-1-oxopropyl]amino]-3-methylbutyl]]", "values": [
      {"measurement": "IC50", "setting": "[1]", "result": "< 10", "unit": "nM"},
      {"measurement": "EC50", "setting": "[2]; [3]", "result": "200 to 2000", "unit": "nM"},
      {"measurement": "melting point", "result": "120 to 123", "unit": "°C"}
    ]},
    {"smiles": "CCCCc1ccc(C(=O)N[C@@H](CNS(=O)(=O)c2ccc(N3CCOCC3)nc2)C(=O)N[C@@H](CC(C)C)B(O)O)cc1.Cl", "note": "[E.5.27, Boronic acid, [(1R)-1-[[(2S)-3-[6-morpholin-4-yl-pyridine-3-sulfamoyl]-2-[(4-butylbenzoyl)amino]-1-oxopropyl]amino]-3-methylbutyl] hydrochloride]", "values": [
      {"measurement": "IC50", "setting": "[1]", "result": "< 10", "unit": "nM"},
      {"measurement": "EC50", "setting": "[2]; read-out: MOLT4 (EC50); assay of Example E, inhibition of MOLT4", "result": "< 200", "unit": "nM"},
      {"measurement": "melting point", "result": "182 to 184", "unit": "°C"}
    ]},
    {"smiles": "CCCCc1ccc(C(=O)N[C@@H](CNC(=O)c2ccc(N3CCOCC3)nc2)C(=O)N[C@@H](CC(C)C)B(O)O)cc1", "note": "[E.5.28, Boronic acid, [(1R)-1-[[(2S)-3-(6-morpholinonicotinamide]-2-[(4-butylbenzoyl)amino]-1-oxopropyl]amino]-3-methylbutyl]]", "values": [
      {"measurement": "IC50", "setting": "[1]", "result": "< 10", "unit": "nM"},
      {"measurement": "EC50", "setting": "[2]; [3]", "result": "< 200", "unit": "nM"},
      {"measurement": "melting point", "result": "178 to 180", "unit": "°C"}
    ]},
    {"smiles": "CC(C)C[C@H](NC(=O)[C@H](CNS(=O)(=O)c1ccc(F)cc1)NC(=O)c1ccc(Oc2ccccc2)cc1)B(O)O", "note": "[E.5.30, Boronic acid, [(1R)-1-[[(2S)-3-[4-fluoro-benzenesulfonamide]-2-[(4-phenoxybenzoyl)amino]-1-oxopropyl]amino]-3-methylbutyl]]", "values": [
      {"measurement": "IC50", "setting": "[1]", "result": "< 10", "unit": "nM"},
      {"measurement": "EC50", "setting": "[2]; [3]", "result": "200 to 2000", "unit": "nM"},
      {"measurement": "melting point", "result": "150 to 155", "unit": "°C"}
    ]},
    {"smiles": "Cc1cc(C(=O)NC[C@H](NC(=O)c2ccc(Oc3ccccc3)cc2)C(=O)N[C@@H](CC(C)C)B(O)O)n(C)n1", "note": "[E.5.31]", "values": [
      {"measurement": "IC50", "setting": "[1]", "result": "< 10", "unit": "nM"},
      {"measurement": "EC50", "setting": "[2]; [3]", "result": "< 200", "unit": "nM"},
      {"measurement": "melting point", "result": "145 to 148", "unit": "°C"}
    ]},
    {"smiles": "CC(C)C[C@H](NC(=O)[C@H](CNC(=O)Nc1ccccc1)NC(=O)c1ccc(Oc2ccccc2)cc1)B(O)O", "note": "[E.5.32, Boronic acid, [(1R)-1-[[(2S)-3-(4-phenylureido]-2-[(4-phenoxybenzoyl)amino]-1-oxopropyl]amino]-3-methylbutyl]]", "values": [
      {"measurement": "IC50", "setting": "[1]", "result": "< 10", "unit": "nM"},
      {"measurement": "EC50", "setting": "[2]; [3]", "result": "< 200", "unit": "nM"},
      {"measurement": "melting point", "result": "155 to 158", "unit": "°C"}
    ]},
    {"smiles": "CCCCc1ccc(C(=O)N[C@@H](CNC(=O)c2ccc(-c3ccccc3)cc2)C(=O)N[C@@H](CC(C)C)B(O)O)cc1", "note": "[E.5.33, Boronic acid, [(1R)-1-[[(2S)-3-(4-phenybenzamide]-2-[(4-butylbenzoyl)amino]-1-oxopropyl]amino]-3-methylbutyl]]", "values": [
      {"measurement": "IC50", "setting": "[1]", "result": "< 10", "unit": "nM"},
      {"measurement": "EC50", "setting": "[2]; [3]", "result": "200 to 2000", "unit": "nM"},
      {"measurement": "melting point", "result": "178 to 180", "unit": "°C"}
    ]},
    {"smiles": "CC(C)C[C@H](NC(=O)[C@H](CNC(=O)c1ccc(-c2ccccc2)cc1)NC(=O)c1ccc(Oc2ccccc2)cc1)B(O)O", "note": "[E.5.34, Boronic acid, [(1R)-1-[[(2S)-3-(4-phenylbenzamide]-2-[(4-phenoxybenzoyl)amino]-1-oxopropyl]amino]-3-methylbutyl]]", "values": [
      {"measurement": "IC50", "setting": "[1]", "result": "< 10", "unit": "nM"},
      {"measurement": "EC50", "setting": "[2]; [3]", "result": "< 200", "unit": "nM"},
      {"measurement": "melting point", "result": "158 to 160", "unit": "°C"}
    ]},
    {"smiles": "CCCCc1ccc(C(=O)N[C@@H](CNC(=O)C#Cc2ccccc2)C(=O)N[C@@H](CC(C)C)B(O)O)cc1", "note": "[E.5.35]", "values": [
      {"measurement": "IC50", "setting": "[1]", "result": "< 10", "unit": "nM"},
      {"measurement": "EC50", "setting": "[2]; [3]", "result": "< 200", "unit": "nM"},
      {"measurement": "melting point", "result": "138 to 140", "unit": "°C"}
    ]},
    {"smiles": "CCCCc1ccc(C(=O)N[C@@H](CNC(=O)NS(=O)(=O)c2ccc(C)cc2)C(=O)N[C@@H](CC(C)C)B(O)O)cc1", "note": "[E.5.36]", "values": [
      {"measurement": "IC50", "setting": "[1]", "result": "< 100", "unit": "nM"},
      {"measurement": "EC50", "setting": "[2]; [3]", "result": "200 to 2000", "unit": "nM"},
      {"measurement": "melting point", "result": "175 to 177", "unit": "°C"}
    ]},
    {"smiles": "CCCCc1ccc(C(=O)N[C@@H](CNC(=O)c2csc(-c3ccncc3)n2)C(=O)N[C@@H](CC(C)C)B(O)O)cc1", "note": "[E.5.37, Boronic acid, [(1R)-1-[[(2S)-3-(4-(2-(4-pyridyl)-1,3-thiazole-4-carbonylamino)]-2-[(4-butylbenzoyl)amino]-1-oxopropyl]amino]-3-methylbutyl]]", "values": [
      {"measurement": "IC50", "setting": "[1]", "result": "< 10", "unit": "nM"},
      {"measurement": "EC50", "setting": "[2]; [3]", "result": "< 200", "unit": "nM"},
      {"measurement": "melting point", "result": "155 to 158", "unit": "°C"}
    ]}
  ]
}
